Key:
S. aureus ATCC 13709 = assay: MIC, NCCLS broth microdilution; type: cell-based, Staphylococcus aureus; details: A = S. aureus ATCC 13709 (MSSA)
Outline: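 MIC values come from microtiter-plate broth microdilution run to NCCLS standards (M7-A4, M11-A4, M27-T). For C. albicans ATCC 38247, the antifungal procedure of the 1995 Manual of Clinical Microbiology was used instead.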

S. aureus ATCC 27660 = assay: MIC, NCCLS broth microdilution; type: cell-based, Staphylococcus aureus; details: B = S. aureus ATCC 27660 (MRSA)
Outline: (§1)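 Minimal inhibitory concentration determined by NCCLS broth microdilution in microtiter plates per documents M7-A4, M11-A4 and M27-T. S. aureus ATCC 27660 is a methicillin-resistant strain. The antifungal test on C. albicans followed the method recommended in the Manual of Clinical Microbiology (1995).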

E. faecalis ATCC 29212 = assay: MIC, NCCLS broth microdilution; type: cell-based, Enterococcus faecalis; details: C = E. faecalis ATCC 29212
Outline: (§2)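 Compounds were serially diluted in broth and tested against each strain according to NCCLS guidelines, with MIC taken as the endpoint. C. albicans was assayed per the Manual of Clinical Microbiology.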

B. cereus ATCC 11778 = assay: MIC, NCCLS broth microdilution; type: cell-based, Bacillus cereus; details: D = B. cereus ATCC 11778
Outline: as §1

S. pneumoniae ATCC 49619 = assay: MIC, NCCLS broth microdilution; type: cell-based, Streptococcus pneumoniae; details: E = S. pneumoniae ATCC 49619
Outline: as §2

C. albicans ATCC 38247 = assay: MIC, antifungal assay; type: cell-based, Candida albicans; details: F = C. albicans ATCC 38247
Outline: as §1

E. coli ATCC 25922 = assay: MIC, NCCLS broth microdilution; type: cell-based, Escherichia coli; details: G = E. coli ATCC 25922
Outline: as §2

[1] = system: M. catarrhalis (ATCC 25238); assay: MIC, NCCLS broth microdilution; type: cell-based, Moraxella (now Branhamella) catarrhalis; details: H = M. catarrhalis (ATCC 25238)
Outline: as §1

| Compound | Minimum Inhibitory Concentration (MIC) (S. aureus ATCC 13709) | Minimum Inhibitory Concentration (MIC) (S. aureus ATCC 27660) | Minimum Inhibitory Concentration (MIC) (E. faecalis ATCC 29212) | Minimum Inhibitory Concentration (MIC) (B. cereus ATCC 11778) | Minimum Inhibitory Concentration (MIC) (S. pneumoniae ATCC 49619) | Minimum Inhibitory Concentration (MIC) (C. albicans ATCC 38247) | Minimum Inhibitory Concentration (MIC) (E. coli ATCC 25922) | Minimum Inhibitory Concentration (MIC) [1] |
| --- | --- | --- | --- | --- | --- | --- | --- | --- |
| Cn1cc(NC(=O)c2nccc3ccccc23)cc1C(=O)Nc1ccc(C(=O)Nc2cn(C)c(C(=O)NCCN3CCC(O)CC3)n2)cc1 [Compound A-5] | +++ (MIC ≦ 4 μg/mL) | +++ (MIC ≦ 4 μg/mL) | +++ (MIC ≦ 4 μg/mL) | +++ (MIC ≦ 4 μg/mL) | +++ (MIC ≦ 4 μg/mL) | >32 µg/mL | >32 µg/mL | >32 µg/mL |
| Cn1cc(NC(=O)c2cc3ccccc3cn2)cc1C(=O)Nc1ccc(C(=O)Nc2cn(C)c(C(=O)NCCNCCO)n2)cc1 [Compound A-45] | +++ (MIC ≦ 4 μg/mL) | +++ (MIC ≦ 4 μg/mL) | +++ (MIC ≦ 4 μg/mL) | +++ (MIC ≦ 4 μg/mL) | +++ (MIC ≦ 4 μg/mL) | >32 µg/mL | >32 µg/mL | + (12 ≦ MIC ≦ 32 μg/mL) |
| COCCNCCNC(=O)c1nc(NC(=O)c2ccc(NC(=O)c3cc(NC(=O)c4cc5ccccc5cn4)cn3C)cc2)cn1C [Compound A-28] | +++ (MIC ≦ 4 μg/mL) | +++ (MIC ≦ 4 μg/mL) | +++ (MIC ≦ 4 μg/mL) | +++ (MIC ≦ 4 μg/mL) | +++ (MIC ≦ 4 μg/mL) | + (12 ≦ MIC ≦ 32 μg/mL) | ++ (4 < MIC < 12 μg/mL) | +++ (MIC ≦ 4 μg/mL) |
| Cn1cc(NC(=O)c2cc3ccccc3cn2)cc1C(=O)Nc1ccc(C(=O)Nc2cn(C)c(C(=O)NCCN3CCCC3)n2)cc1 [Compound A-16] | +++ (MIC ≦ 4 μg/mL) | +++ (MIC ≦ 4 μg/mL) | +++ (MIC ≦ 4 μg/mL) | +++ (MIC ≦ 4 μg/mL) | +++ (MIC ≦ 4 μg/mL) | >32 µg/mL | +++ (MIC ≦ 4 μg/mL) | +++ (MIC ≦ 4 μg/mL) |
| Cn1cc(NC(=O)c2sccc2Cl)cc1C(=O)Nc1ccc(C(=O)Nc2cn(C)c(C(=O)NCCN3CCC(O)CC3)n2)cc1 [Compound A-1] | +++ (MIC ≦ 4 μg/mL) | +++ (MIC ≦ 4 μg/mL) | +++ (MIC ≦ 4 μg/mL) | +++ (MIC ≦ 4 μg/mL) | +++ (MIC ≦ 4 μg/mL) | >32 µg/mL | >32 µg/mL | + (12 ≦ MIC ≦ 32 μg/mL) |
| Cn1cc(NC(=O)c2cc3ccccc3cn2)cc1C(=O)Nc1ccc(C(=O)Nc2cn(C)c(C(=O)NCCN3CCN(CCOC(=O)CNC(=O)C4OC(O)C(O)C(O)C4O)CC3)n2)cc1 (stereo not drawn) [Compound A-76] | +++ (MIC ≦ 4 μg/mL) | +++ (MIC ≦ 4 μg/mL) | +++ (MIC ≦ 4 μg/mL) | +++ (MIC ≦ 4 μg/mL) | +++ (MIC ≦ 4 μg/mL) | >32 µg/mL | >32 µg/mL | +++ (MIC ≦ 4 μg/mL) |
| Cn1cc(NC(=O)c2cc3cc4c(cc3cn2)OCO4)cc1C(=O)Nc1ccc(C(=O)Nc2cn(C)c(C(=O)NCCN3CCC(O)CC3)n2)cc1 [Compound A-6] | +++ (MIC ≦ 4 μg/mL) | +++ (MIC ≦ 4 μg/mL) | +++ (MIC ≦ 4 μg/mL) | +++ (MIC ≦ 4 μg/mL) | +++ (MIC ≦ 4 μg/mL) | + (12 ≦ MIC ≦ 32 μg/mL) | + (12 ≦ MIC ≦ 32 μg/mL) | ++ (4 < MIC < 12 μg/mL) |
| CCN(CC)CCNC(=O)c1nc(NC(=O)c2ccc(NC(=O)c3cc(NC(=O)c4cc5ccccc5cn4)cn3C)cc2)cn1C [Compound A-25] | +++ (MIC ≦ 4 μg/mL) | +++ (MIC ≦ 4 μg/mL) | +++ (MIC ≦ 4 μg/mL) | +++ (MIC ≦ 4 μg/mL) | +++ (MIC ≦ 4 μg/mL) | >32 µg/mL | >32 µg/mL | +++ (MIC ≦ 4 μg/mL) |
| COCC(C)NCCNC(=O)c1nc(NC(=O)c2ccc(NC(=O)c3cc(NC(=O)c4cc5ccccc5cn4)cn3C)cc2)cn1C (stereo not drawn) [Compound A-38] | +++ (MIC ≦ 4 μg/mL) | +++ (MIC ≦ 4 μg/mL) | +++ (MIC ≦ 4 μg/mL) | +++ (MIC ≦ 4 μg/mL) | +++ (MIC ≦ 4 μg/mL) | >32 µg/mL | >32 µg/mL | +++ (MIC ≦ 4 μg/mL) |
| COCCCNCCNC(=O)c1nc(NC(=O)c2ccc(NC(=O)c3cc(NC(=O)c4cc5ccccc5cn4)cn3C)cc2)cn1C [Compound A-39] | +++ (MIC ≦ 4 μg/mL) | +++ (MIC ≦ 4 μg/mL) | +++ (MIC ≦ 4 μg/mL) | +++ (MIC ≦ 4 μg/mL) | +++ (MIC ≦ 4 μg/mL) | >32 µg/mL | >32 µg/mL | >32 µg/mL |
| CC(O)CN1CCN(CCNC(=O)c2nc(NC(=O)c3ccc(NC(=O)c4cc(NC(=O)c5cc6ccccc6cn5)cn4C)cc3)cn2C)CC1 (stereo not drawn) [Compound A-63] | +++ (MIC ≦ 4 μg/mL) | +++ (MIC ≦ 4 μg/mL) | +++ (MIC ≦ 4 μg/mL) | +++ (MIC ≦ 4 μg/mL) | +++ (MIC ≦ 4 μg/mL) | >32 µg/mL | +++ (MIC ≦ 4 μg/mL) | +++ (MIC ≦ 4 μg/mL) |
| Cn1cc(NC(=O)c2cc3ccccc3cn2)cc1C(=O)Nc1ccc(C(=O)Nc2cn(C)c(C(=O)NCCN3CCOCC3)n2)cc1 [Compound A-10] | +++ (MIC ≦ 4 μg/mL) | +++ (MIC ≦ 4 μg/mL) | +++ (MIC ≦ 4 μg/mL) | +++ (MIC ≦ 4 μg/mL) | +++ (MIC ≦ 4 μg/mL) | >32 µg/mL | >32 µg/mL | +++ (MIC ≦ 4 μg/mL) |

— patent US7642245B2, “Antibacterial compounds having a (pyrrole carboxamide)-(benzamide)-(imidazole carboxamide) motif” (Oscient Pharmaceuticals Corporation, priority 2002, dated 2010)
